{"source": "patent US20190077856A1", "about": "“METHOD OF TREATING DISEASES USING KINASE MODULATORS” (Memorial Sloan Kettering Cancer Center, priority 2016, published 2019)", "key": {"JMN [1]": {"tested_on": "JMN", "experiment": "Cell surface HLA-A / HLA-ABC by flow cytometry (BB7, W6/32) after 72 hours", "format": "cell-based, human", "excerpt": "1% DMSO was used as a vehicle control. […] Experimental setup was similar to FIG. 2A."}, "PC9": {"tested_on": "PC9", "experiment": "Cell surface HLA-A by flow cytometry (BB7) after 72 hours with inhibitor", "format": "cell-based, human", "details": "PC9, activating EGFR mutation (del E746-A750)"}, "Meso34 [2]": {"tested_on": "Meso34", "experiment": "Cell surface HLA-A by flow cytometry (BB7) after 72 hours with inhibitor", "format": "cell-based, human", "details": "Meso34 without an EGFR mutation, same dose"}, "[3]": {"tested_on": "NSCLC cell lines H827, H1975, H1299, A549", "experiment": "Surface HLA-ABC (MHC-I) on panel of NSCLC cell lines", "format": "cell-based, human", "details": "for surface MHC-I: cell lines that had the sensitizing mutation; for sensitivity to up-regulating surface MHC-I: cell lines with downstream activating RAS mutations", "excerpt": "(§1) 1% DMSO was used as a vehicle control. […] Use of ESK antibody to a peptide derived from the oncoprotein WT1 that is presented on HLA-A0201. […] PRAME is a TCRm antibody against an epitope of PRAME tumor antigen presented on HLA-A0201 on SKMEL5. Experimental setup was similar to FIG. 2A. […] FIG. 2D: Use of EGFRi erlotinib and afatanib, along with MEKi trametinib on H827 (EGFR E746del-A750 mutation), H1975 (L858R/T790M), H1299 (EGFR wt, NRAS Q61K), and A549 (EGFR wt/KRAS G12S) to alter surface HLA-ABC levels. Student's t-test was done to compare each treatment to vehicle control. *P values annotated as in FIG. 1E. […] FIG. 2F: H1299 cells were transduced with retroviral vectors expressing EGFR L858R and were analyzed for surface pan HLA-ABC using W6/32. […] The NRAS Q61K mutation was introduced into H827 and cells were treated with EGFRi or MEKi as done in FIG. 2G.\n(§2) Small molecule inhibitor studies: Compounds were obtained from SelleckChem (Houston, Tx. USA). Drugs were used at sub-cytostatic doses by titration using the Cell Titer Glo assay (Promega). All drugs were used in vitro at indicated doses in 1% dimethyl sulfoxide (DMSO).\nThe mechanism by which the MAP kinase pathway suppresses levels of HLA-A is unknown. Given that many cancers have activating mutations in specific genes in the MAP kinase pathway, inhibition of the identified hits was investigated in cell lines harboring mutations in EGFR, or downstream in Ras. A panel of NSCLC cell lines with activating mutations in EGFR, such as the delE746-A750 in H827, or L858R/T790M mutation in H1975, was utilized. The delE746-A750 confers sensitivity to erlotinib, whereas the T790M confers resistance to erlotinib and other first generation EGFR inhibitors, but is sensitive to afatanib (Cross et al., 2014, Cancer Discov 4(9):1046-61). EGFR wild type NSCLC lines with downstream mutations, such as activating NRAS Q61K in H1299 or KRAS G12S in A549, were also utilized."}, "JMN [4]": {"tested_on": "JMN", "experiment": "ADCC assay (51Cr release) with TCR mimic antibody ESKM after trametinib", "format": "cell-based, human", "details": "72 hours trametinib, non-cytotoxic dose", "experimental": "(§3) Cells were incubated for 72 hours with either vehicle control or trametinib and subsequently exposed to either isotype antibody or ESKM in ADCC assay. FIG. 3B depicts an ADCC assay on Meso34 (human mesothelioma). The experimental setup was similar to FIG. 3A. FIG. 3C depicts an ADCC assay on SKMEL5 (human melanoma) using TCRm mAb PRAME against the PRAME epitope; the experimental setup was similar to FIG. 3A. FIG. 3D: B16F10 cells were exposed to pmel-1 (gp100) specific TCR T-cells for 24 hours, then killing was assessed using a clonogenic assay described previously (Budhu et al. 2010, J Exp Med 207:223-235)\n(§4) ADCC: The HLA-A*02:01 positive mesothelioma cell lines JMN and Meso34, along with the melanoma cell line SK-MELS were used in the ADCC assay as a target (May et al. 2007, Clin Cancer Res 13:4547-4555) . Antibodies ESKM (Veomett et al., 2014, Clin Cancer Res 20(15):4036-4046), PRAME, or its isotype control hIgG1 at 3 ug/ml were incubated with target cells and fresh healthy donor PBMCs at different effector/target ratios for 6 hours, along with indicated doses of vehicle or trametinib in RPMI (Roswell Park Memorial Institute medium) supplemented with 10% fetal bovine serum (FBS). The supernatant was harvested, and the cytotoxicity was measured by a ^51Cr release assay (Perkin Elmer)."}, "Meso34 [5]": {"tested_on": "Meso34", "experiment": "ADCC assay (51Cr release) with TCR mimic antibody ESKM after trametinib", "format": "cell-based, human", "details": "72 hours trametinib, non-cytotoxic dose", "experimental": "as §3, §4"}, "SK-MEL-5": {"tested_on": "SK-MEL-5", "experiment": "ADCC assay (51Cr release) with TCR mimic mAb Pr20m (PRAME) after trametinib", "format": "cell-based, human", "experimental": "as §3, §4"}, "pERK": {"tested_on": "pERK", "experiment": "Titration of MEK inhibition by western blot for pERK and ERK", "format": "cell-based, human", "details": "JMN and Meso34 cells; time=1 hour", "excerpt": "(§5) It was hypothesized that the inhibition of the MAP kinase pathway might act on other components of the antigen presentation machinery in addition to MHC-I molecules, thus allowing increased epitope expression in the more abundant cell surface HLA molecules."}, "JMN [6]": {"tested_on": "JMN", "experiment": "Time course of MEK inhibition and HLA-A / B2M protein, western blot", "format": "cell-based, human", "details": "50 nM trametinib", "experimental": "FIG. 11: JMN was treated with 50 nM trametinib and lysate was analyzed as in FIG. 4C at different time points.\nas §5"}, "H827": {"tested_on": "H827", "details": "similar level of suppression of pERK", "excerpt": "as §1, §2"}, "HLA-A and B2M protein": {"tested_on": "HLA-A and B2M protein", "details": "erlotinib (EGFRi), 72 hours", "source_text": "The HLA-A and B2M promoter was cloned upstream of the Gaussian Luciferase (GLuc) gene. Secreted embryonic alkaline phosphatase (SEAP) under the CMV promoter was used as a normalization factor."}}}
{"compound": "CN(C)C/C=C/C(=O)Nc1cc2c(Nc3ccc(F)c(Cl)c3)ncnc2cc1O[C@H]1CCOC1", "note": "[afatanib]", "values": [{"measurement": "HLA-A up-regulation response", "setting": "JMN [1]; 72 hours, BB7 binding", "value": "responded"}, {"measurement": "HLA-A up-regulation response", "setting": "PC9", "value": "responded"}, {"measurement": "HLA-A up-regulation response", "setting": "Meso34 [2]", "value": "did not respond"}, {"measurement": "surface MHC-I", "setting": "[3]", "value": "up-regulated"}, {"measurement": "sensitivity to up-regulating surface MHC-I", "setting": "[3]", "value": "not observed"}]}
{"compound": "CC(=O)Nc1cccc(-n2c(=O)n(C3CC3)c(=O)c3c(Nc4ccc(I)cc4F)n(C)c(=O)c(C)c32)c1", "note": "[trametinib]", "values": [{"measurement": "cytotoxicity of ESKM (ADCC)", "setting": "JMN [4]", "value": "increased"}, {"measurement": "cytotoxicity of ESKM (ADCC)", "setting": "Meso34 [5]", "value": "increased"}, {"measurement": "increased cytotoxicity of Pr20m mAb (ADCC)", "setting": "SK-MEL-5", "value": "also observed"}, {"measurement": "dose to which cells were sensitive (pERK inhibition)", "setting": "pERK", "value": "less than 10 nM"}, {"measurement": "time of maximal increases of HLA-A and B2M", "setting": "JMN [6]", "value": 72, "unit": "h"}, {"measurement": "time of maximal inhibition of MEK", "setting": "JMN [6]", "value": 3, "unit": "h"}]}
{"compound": "C#Cc1cccc(Nc2ncnc3cc(OCCOC)c(OCCOC)cc23)c1", "note": "[erlotinib]", "values": [{"measurement": "surface MHC-I", "setting": "[3]", "value": "up-regulated"}, {"measurement": "sensitivity to up-regulating surface MHC-I", "setting": "[3]", "value": "not observed"}, {"measurement": "surface MHC-I response compared with MEKi by trametinib", "setting": "H827", "value": "responded more strongly"}, {"measurement": "HLA-A and B2M protein", "setting": "HLA-A and B2M protein", "value": "dose dependent increase"}]}
{"compound": "EGF: epidermal growth factor, EGF protein that turns on EGFR (NSDSECPLSHDGYCLHDGVCMYIEALDKYACNCVVGYIGERCQYRDLKWWELR; Epidermal growth factor; UniProt P01133 971-1023, looked up)", "values": [{"measurement": "surface HLA-A", "setting": "JMN [1]; 10 nM EGF for 72 hours", "value": "suppressed"}, {"measurement": "surface HLA-A,B,C", "setting": "JMN [1]; 10 nM EGF for 72 hours", "value": "suppressed"}]}
